In patent US6638973B2, “Taxane formulations” (FSU Research Foundation, Inc., priority 2000, dated 2003) one finds IC50 data, which are given here for 35 compounds.

A value given as a limit tells only on which side of the number the result lay.

The first experiment relates to HCT116 cells. Put plainly: In vitro cytotoxicity measured by the cell colony formation assay. In kind it is cell-based. The note with it: HCT116 cells, 72 h incubation with drug, colonies counted after 7 days; ID50 = drug concentration producing 50% inhibition of colony formation; read-out: IN VITRO ID 50 (nm) HCT116. In outline: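 Colony-forming survival was scored 7 days after a 72 h, 37 °C compound exposure followed by washout into fresh medium.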
Take `COC(=O)O[C@H]1C(=O)[C@@]2(C)C([C@H](OC(=O)c3ccccc3)[C@]3(O)C[C@H](OC(=O)[C@H](O)[C@@H](NC(=O)OC(C)(C)C)C(C)C)C(C)=C1C3(C)C)[C@]1(OC(C)=O)CO[C@@H]1C[C@@H]2O` (some centres unmarked) [Compound 2060]: the IC50 is less than 10 nM.
`COC(=O)O[C@H]1C(=O)[C@@]2(C)C([C@H](OC(=O)c3ccccc3)[C@]3(O)C[C@H](OC(=O)[C@H](O)[C@@H](NC(=O)OC(C)(C)C)C(C)C)C(C)=C1C3(C)C)[C@]1(OC(C)=O)CO[C@@H]1C[C@@H]2O` (some centres unmarked) [Compound 2062]: the IC50 was less than 10 nM.
Still for that read-out and setting: with `COC(=O)O[C@H]1C(=O)[C@@]2(C)C([C@H](OC(=O)c3ccccc3)[C@]3(O)C[C@H](OC(=O)[C@H](O)[C@@H](NC(=O)OC(C)(C)C)C4CCC4)C(C)=C1C3(C)C)[C@]1(OC(C)=O)CO[C@@H]1C[C@@H]2O` (some centres unmarked) [Compound 2077] the figure was less than 10 nM; with `COC(=O)O[C@H]1C(=O)[C@@]2(C)C([C@H](OC(=O)c3ccccc3)[C@]3(O)C[C@H](OC(=O)[C@H](O)[C@@H](NC(=O)OC(C)(C)C)c4ccc([N+](=O)[O-])cc4)C(C)=C1C3(C)C)[C@]1(OC(C)=O)CO[C@@H]1C[C@@H]2O` (some centres unmarked) [Compound 2088], less than 1 nM.
On the same count and under the same terms, to `COC(=O)O[C@H]1C(=O)[C@@]2(C)C([C@H](OC(=O)c3ccccc3)[C@]3(O)C[C@H](OC(=O)[C@H](O)[C@@H](NC(=O)OC(C)(C)C)c4ccccc4)C(C)=C1C3(C)C)[C@]1(OC(C)=O)CO[C@@H]1C[C@@H]2O` (some centres unmarked) [Compound 2092] belongs less than 1 nM.

The same experiment, now with this note: HCT116 colony formation; 72 h drug incubation, colonies counted after 7 days; Example 10, C-10 ester/C-7 hydroxy taxanes; read-out: IN VITRO ID 50 (nm) HCT116.
`CC(=O)OC12COC1CC(O)C1(C)C(=O)C(OC(=O)c3ccco3)C3=C(C)C(OC(=O)C(O)C(C=C(C)C)NC(=O)OC(C)(C)C)CC(O)(C(OC(=O)c4ccccc4)C21)C3(C)C` (centres unmarked) [Compound 2101]: the IC50 is less than 1 nM.
Same read-out and setting: with `CC(=O)OC12COC1CC(O)C1(C)C(=O)C(OC(=O)c3ccco3)C3=C(C)C(OC(=O)C(O)C(NC(=O)OC(C)(C)C)c4ccccn4)CC(O)(C(OC(=O)c4ccccc4)C21)C3(C)C` (centres unmarked) [Compound 2111] the figure was less than 1 nM; with `CC(=O)OC12COC1CC(O)C1(C)C(=O)C(OC(=O)c3ccco3)C3=C(C)C(OC(=O)C(O)C(NC(=O)OC(C)(C)C)c4cccnc4)CC(O)(C(OC(=O)c4ccccc4)C21)C3(C)C` (centres unmarked) [Compound 2124], less than 10 nM; with `CC(=O)OC12COC1CC(O)C1(C)C(=O)C(OC(=O)c3ccco3)C3=C(C)C(OC(=O)C(O)C(NC(=O)OC(C)(C)C)c4ccncc4)CC(O)(C(OC(=O)c4ccccc4)C21)C3(C)C` (centres unmarked) [Compound 2132], less than 1 nM.
For the compound `CC(=O)OC12COC1CC(O)C1(C)C(=O)C(OC(=O)c3ccco3)C3=C(C)C(OC(=O)C(O)C(NC(=O)OC(C)(C)C)c4ccco4)CC(O)(C(OC(=O)c4ccccc4)C21)C3(C)C` (centres unmarked) [Compound 2142], the IC50 is less than 1 nM.
Take `CC(=O)OC12COC1CC(O)C1(C)C(=O)C(OC(=O)c3ccco3)C3=C(C)C(OC(=O)C(O)C(NC(=O)OC(C)(C)C)c4ccoc4)CC(O)(C(OC(=O)c4ccccc4)C21)C3(C)C` (centres unmarked) [Compound 2159]: the IC50 is less than 1 nM.
As for `CC(=O)OC12COC1CC(O)C1(C)C(=O)C(OC(=O)c3ccco3)C3=C(C)C(OC(=O)C(O)C(NC(=O)OC(C)(C)C)c4cccs4)CC(O)(C(OC(=O)c4ccccc4)C21)C3(C)C` (centres unmarked) [Compound 2164], the IC50 is less than 1 nM.
Same read-out and setting: with `CC(=O)OC12COC1CC(O)C1(C)C(=O)C(OC(=O)c3ccco3)C3=C(C)C(OC(=O)C(O)C(NC(=O)OC(C)(C)C)c4ccsc4)CC(O)(C(OC(=O)c4ccccc4)C21)C3(C)C` (centres unmarked) [Compound 2173] the figure was less than 1 nM.
Still for that read-out and setting: to `CC(=O)OC12COC1CC(O)C1(C)C(=O)C(OC(=O)c3ccco3)C3=C(C)C(OC(=O)C(O)C(NC(=O)OC(C)(C)C)C(C)C)CC(O)(C(OC(=O)c4ccccc4)C21)C3(C)C` (centres unmarked) [Compound 2181] belongs less than 10 nM.
Turning to `CC(=O)OC12COC1CC(O)C1(C)C(=O)C(OC(=O)c3ccco3)C3=C(C)C(OC(=O)C(O)C(NC(=O)OC(C)(C)C)C4CCC4)CC(O)(C(OC(=O)c4ccccc4)C21)C3(C)C` (centres unmarked) [Compound 2199], the IC50 was less than 10 nM.
For the compound `CC(=O)OC12COC1CC(O)C1(C)C(=O)C(OC(=O)c3ccco3)C3=C(C)C(OC(=O)C(O)C(NC(=O)OC(C)(C)C)c4ccc([N+](=O)[O-])cc4)CC(O)(C(OC(=O)c4ccccc4)C21)C3(C)C` (centres unmarked) [Compound 2202], the IC50 is less than 1 nM.
Still for that read-out and setting: to `CC(=O)OC12COC1CC(O)C1(C)C(=O)C(OC(=O)c3ccco3)C3=C(C)C(OC(=O)C(O)C(NC(=O)OC(C)(C)C)c4ccccc4)CC(O)(C(OC(=O)c4ccccc4)C21)C3(C)C` (centres unmarked) [Compound 2212] belongs less than 10 nM.
On the same count and under the same terms, to `CC(=O)OC12COC1CC(O)C1(C)C(=O)C(OC(=O)C(C)C)C3=C(C)C(OC(=O)C(O)C(C=C(C)C)NC(=O)OC(C)(C)C)CC(O)(C(OC(=O)c4ccccc4)C21)C3(C)C` (centres unmarked) [Compound 2226] belongs less than 1 nM; to `CC(=O)OC12COC1CC(O)C1(C)C(=O)C(OC(=O)C(C)C)C3=C(C)C(OC(=O)C(O)C(NC(=O)OC(C)(C)C)c4ccccn4)CC(O)(C(OC(=O)c4ccccc4)C21)C3(C)C` (centres unmarked) [Compound 2238], less than 1 nM; to `CC(=O)O[C@@]12CO[C@@H]1C[C@H](O)[C@@]1(C)C(=O)[C@H](OC(=O)C(C)C)C3=C(C)[C@@H](OC(=O)[C@H](O)[C@@H](NC(=O)OC(C)(C)C)c4cccnc4)C[C@@](O)([C@@H](OC(=O)c4ccccc4)C12)C3(C)C` (some centres unmarked) [Compound 2242], less than 10 nM.
On the same count and under the same terms, to `CC(=O)O[C@@]12CO[C@@H]1C[C@H](O)[C@@]1(C)C(=O)[C@H](OC(=O)C(C)C)C3=C(C)[C@@H](OC(=O)[C@H](O)[C@@H](NC(=O)OC(C)(C)C)c4ccncc4)C[C@@](O)([C@@H](OC(=O)c4ccccc4)C12)C3(C)C` (some centres unmarked) [Compound 2255] belongs less than 1 nM; to `CC(=O)O[C@@]12CO[C@@H]1C[C@H](O)[C@@]1(C)C(=O)[C@H](OC(=O)C(C)C)C3=C(C)[C@@H](OC(=O)[C@H](O)[C@@H](NC(=O)OC(C)(C)C)c4ccco4)C[C@@](O)([C@@H](OC(=O)c4ccccc4)C12)C3(C)C` (some centres unmarked) [Compound 2269], less than 1 nM; to `CC(=O)O[C@@]12CO[C@@H]1C[C@H](O)[C@@]1(C)C(=O)[C@H](OC(=O)C(C)C)C3=C(C)[C@@H](OC(=O)[C@H](O)[C@@H](NC(=O)OC(C)(C)C)c4ccoc4)C[C@@](O)([C@@H](OC(=O)c4ccccc4)C12)C3(C)C` (some centres unmarked) [Compound 2273], less than 1 nM.
As to `CC(=O)O[C@@]12CO[C@@H]1C[C@H](O)[C@@]1(C)C(=O)[C@H](OC(=O)C(C)C)C3=C(C)[C@@H](OC(=O)[C@H](O)[C@@H](NC(=O)OC(C)(C)C)c4cccs4)C[C@@](O)([C@@H](OC(=O)c4ccccc4)C12)C3(C)C` (some centres unmarked) [Compound 2287], the IC50 was less than 1 nM.
For the compound `CC(=O)O[C@@]12CO[C@@H]1C[C@H](O)[C@@]1(C)C(=O)[C@H](OC(=O)C(C)C)C3=C(C)[C@@H](OC(=O)[C@H](O)[C@@H](NC(=O)OC(C)(C)C)c4ccsc4)C[C@@](O)([C@@H](OC(=O)c4ccccc4)C12)C3(C)C` (some centres unmarked) [Compound 2291], the IC50 is less than 1 nM.
On the same count and under the same terms, with `CC(=O)O[C@@]12CO[C@@H]1C[C@H](O)[C@@]1(C)C(=O)[C@H](OC(=O)C(C)C)C3=C(C)[C@@H](OC(=O)[C@H](O)[C@@H](NC(=O)OC(C)(C)C)C(C)C)C[C@@](O)([C@@H](OC(=O)c4ccccc4)C12)C3(C)C` (some centres unmarked) [Compound 2306] the figure was less than 10 nM; with `CC(=O)O[C@@]12CO[C@@H]1C[C@H](O)[C@@]1(C)C(=O)[C@H](OC(=O)C(C)C)C3=C(C)[C@@H](OC(=O)[C@H](O)[C@@H](NC(=O)OC(C)(C)C)C4CCC4)C[C@@](O)([C@@H](OC(=O)c4ccccc4)C12)C3(C)C` (some centres unmarked) [Compound 2319], less than 10 nM; with `CC(=O)O[C@@]12CO[C@@H]1C[C@H](O)[C@@]1(C)C(=O)[C@H](OC(=O)C(C)C)C3=C(C)[C@@H](OC(=O)[C@H](O)[C@@H](NC(=O)OC(C)(C)C)c4ccc([N+](=O)[O-])cc4)C[C@@](O)([C@@H](OC(=O)c4ccccc4)C12)C3(C)C` (some centres unmarked) [Compound 2320], less than 1 nM.
In the case of `C/C=C/C(=O)O[C@H]1C(=O)[C@@]2(C)C([C@H](OC(=O)c3ccccc3)[C@]3(O)C[C@H](OC(=O)[C@H](O)[C@H](C=C(C)C)NC(=O)OC(C)(C)C)C(C)=C1C3(C)C)[C@]1(OC(C)=O)CO[C@@H]1C[C@@H]2O` (some centres unmarked) [Compound 2332], the IC50 is less than 1 nM.
Still for that read-out and setting: with `C/C=C/C(=O)O[C@H]1C(=O)[C@@]2(C)C([C@H](OC(=O)c3ccccc3)[C@]3(O)C[C@H](OC(=O)[C@H](O)[C@@H](NC(=O)OC(C)(C)C)c4ccccn4)C(C)=C1C3(C)C)[C@]1(OC(C)=O)CO[C@@H]1C[C@@H]2O` (some centres unmarked) [Compound 2348] the figure was less than 1 nM; with `C/C=C/C(=O)O[C@H]1C(=O)[C@@]2(C)C([C@H](OC(=O)c3ccccc3)[C@]3(O)C[C@H](OC(=O)[C@H](O)[C@@H](NC(=O)OC(C)(C)C)c4cccnc4)C(C)=C1C3(C)C)[C@]1(OC(C)=O)CO[C@@H]1C[C@@H]2O` (some centres unmarked) [Compound 2353], less than 10 nM.
Still for that read-out and setting: with `C/C=C/C(=O)O[C@H]1C(=O)[C@@]2(C)C([C@H](OC(=O)c3ccccc3)[C@]3(O)C[C@H](OC(=O)[C@H](O)[C@@H](NC(=O)OC(C)(C)C)c4ccncc4)C(C)=C1C3(C)C)[C@]1(OC(C)=O)CO[C@@H]1C[C@@H]2O` (some centres unmarked) [Compound 2366] the figure was less than 1 nM; with `C/C=C/C(=O)O[C@H]1C(=O)[C@@]2(C)C([C@H](OC(=O)c3ccccc3)[C@]3(O)C[C@H](OC(=O)[C@H](O)[C@@H](NC(=O)OC(C)(C)C)c4ccco4)C(C)=C1C3(C)C)[C@]1(OC(C)=O)CO[C@@H]1C[C@@H]2O` (some centres unmarked) [Compound 2379], less than 1 nM; with `C/C=C/C(=O)O[C@H]1C(=O)[C@@]2(C)C([C@H](OC(=O)c3ccccc3)[C@]3(O)C[C@H](OC(=O)[C@H](O)[C@@H](NC(=O)OC(C)(C)C)c4ccoc4)C(C)=C1C3(C)C)[C@]1(OC(C)=O)CO[C@@H]1C[C@@H]2O` (some centres unmarked) [Compound 2380], less than 1 nM.
Same read-out and setting: with `C/C=C/C(=O)O[C@H]1C(=O)[C@@]2(C)C([C@H](OC(=O)c3ccccc3)[C@]3(O)C[C@H](OC(=O)[C@H](O)[C@@H](NC(=O)OC(C)(C)C)c4cccs4)C(C)=C1C3(C)C)[C@]1(OC(C)=O)CO[C@@H]1C[C@@H]2O` (some centres unmarked) [Compound 2392] the figure was less than 1 nM.
